Laboratory results published in patent US20250206759A1, “FUSED RING COMPOUND, PHARMACEUTICAL COMPOSITION CONTAINING SAME, AND USE OF FUSED RING COMPOUND” (CHENGDU HYPERWAY PHARMACEUTICALS CO., LTD., priority 2022, published 2025).
Read-outs that look alike come from different tables or passages of the source.

Tests used:
[1] = tested on: KRas G12D-mediated ERK phosphorylation; test: Inhibition of KRas G12D-mediated ERK phosphorylation in AGS cells; type: cell-based; conditions: read-out: AGS-pERK IC50
Procedure: Day 1: AGS cells were seeded into 384-well cell culture plates and cultured overnight in a 37° C., 5% CO2 incubator.
Day 2: The compounds were added to the plates using Echo550 and incubated for 3 h in a 37° C., 5% CO2 incubator. Then cells were fixed with paraformaldehyde, permeated with methanol, and blocked with the blocking solution. Finally, a mixed solution of primary antibodies (rabbit anti pERK, mouse anti GAPDH) was added, and the mixture was incubated at 4° C. overnight.
Day 3: The mixed solution of primary antibodies was discarded, and a mixed solution of secondary antibodies (goat anti rabbit 800CW, goat anti mouse 680RD) was added. The mixture was incubated at room temperature in the dark. Finally, the cell culture plate was washed with PBST, and then inverted for 1 minute of centrifugation. The fluorescence signal values were read with Odyssey CLx.
ERK phosphorylation was calculated according to the following formula: […]
X: log value of compound concentration.
Y: average value of relative expression of p-ERK between replicate wells.

GP2d cells = test: 3D cell proliferation inhibition test (CellTiter-Glo), GP2d cells; type: cell-based; conditions: 7 days, read-out: GP2d cells 3D CTG IC50
Procedure: (§1) The diluted compounds to be tested were added to 384-well low-adhesion cell culture plates by using a nanoliter pipetting system (LABCYTE, P-0200). Then, the cells were plated and incubated in a 37° C., […] incubator for 7 days. Afterward, CellTiter-Glo® […] reagent was added, and the luminescent values were read by an Envision multifunctional microplate reader (the luminescent signal is proportional to the amount of ATP in the system, and the ATP content directly represents the number of viable cells in the system). Finally, the IC50 values (half-maximal inhibitory concentration) of the compounds were obtained by the XLFIT software using the nonlinear fitting formula.
(§2) a) The diluted compounds to be tested were added to 384-well low-adsorption cell culture plates by using a nanoliter pipetting system.
(§3) b) Cells were seeded into the 384-well plates in a) and then centrifuged at 1000 rpm for 1 min at room temperature, with a final DMSO concentration of compound being 0.5%. The plates were then incubated in a 37° C., 5% CO2 constant temperature incubator for 7 days.
(§4) c) CellTiter-Glo® 3D was added to the 384-well cell culture plates in b), shaken in the dark, and incubated at room temperature.
(§5) d) The luminescence values were read by using an Envision multifunctional microplate reader.
(§6) The IC50 (half-maximal inhibitory concentration) values of the compounds were obtained by using XLFIT software according to the following nonlinear fitting formula:
(§7) [formula] • X: log value of compound concentration. • Y: inhibition rate (%)
(§8) Inhibition rate (%)=100×(average value of negative control−compound)/(average value of negative control−average value of positive control)
(§9) Positive control: Medium only.

[2] = Pharmacokinetics of compounds in rats (oral); type: in vivo, SD rats; conditions: for AUC / Cmax: male SD rats
Procedure: Male SD rats were purchased from Shanghai SIPPR-Bk Lab Animal Co., Ltd. Each test compound was administered orally (3 rats per group) once to SD rats for pharmacokinetic study. The test compounds were prepared on the day of administration. The test compounds were suspended in 5% DMSO+95% saline, and then vortexed for 2 min and ultrasonicated for 5 min to prepare the administration system. The animals were fasted for 10-14 h before oral administration, and the feeding was resumed 4 h after administration. After oral administration by gavage, pharmacokinetic samples were collected from SD rats through the jugular vein. The collection time points were: before administration, 15 min, 30 min, 1 h, 2 h, 4 h, 6 h, 8 h and 24 h after administration. Three whole blood samples were collected at each time point, with a collection volume of about 0.2 mL, and anticoagulated with sodium heparin. After blood samples were collected, they were immediately placed on ice and centrifuged to separate plasma within 1 hour (centrifugation conditions: 6800 rpm, 6 min, 2-8° C.). The collected plasma was stored in a −80° C. refrigerator before analysis.

ASPC-1 cells = test: 3D cell proliferation inhibition test (CellTiter-Glo), ASPC-1 cells; type: cell-based; conditions: 7 days, read-out: ASPC-1 cells 3D CTG IC50
Procedure: as §1, §2, §3, §4, §5, §6, §7, §8, §9

[3] = male, SD, rat, plasma, po, 100 mg/kg, 100 mg/kg, read-out: AUC
[4] = male, SD, rat, plasma, po, 100 mg/kg, 100 mg/kg, read-out: Cmax

Row | IC50 [1] | AUC ([2]; 100 mg/kg) | Cmax ([2]; 100 mg/kg) | SMILES | IC50 ([1]; Homo sapiens, AGS) | AUC [2, 3] | Cmax [2, 4] | also measured
1 | – | – | – | Oc1cc(-c2ncc3c(N4CC5CCC(C4)N5)nc(OCC45CCCN4[C@@H](c4ccc(C(F)(F)F)c(F)c4)CC5)nc3c2F)c2c(F)c(F)ccc2c1 (mixture of isomers) [Example 225] | 1.5 nM | 380 ng·h/mL | 54 ng/mL | IC50 (GP2d cells; 168 h): 1.49 nM; IC50 (ASPC-1 cells; Homo sapiens, ASPC1, 168 h): 11.1 nM
2 | 0.83 nM | 404 ng·h/mL | 96 ng/mL | Oc1cc(-c2ncc3c(N4C[C@H]5CC[C@@H](C4)N5)nc(OCC45CCCN4C(c4ccc6c(c4)OC(F)(F)O6)CC5)nc3c2F)c2c(F)c(F)ccc2c1 (stereo partly drawn) [Example 142, 4-(4-((1R,5S)-3,8-diazabicyclo[3.2.1]octan-3-yl)-2-((3-(2,2-difluorobenzo[d][1,3]dioxy-5-yl)tetrahydro-1H-pyrrolizin-7a(5H)-yl)methoxy)-8-fluoropyrido[4,3d]pyrimidin-7-yl)-5,6-difluoronaphthalen-2-ol] | – | – | – | IC50 (GP2d cells): 1.15 nM; IC50 (ASPC-1 cells): 13.9 nM
3 | 23 nM | 1192 ng·h/mL | 148 ng/mL | CC1(C)OC(C)(C)c2cc(C3CCC4(COc5nc(N6C[C@H]7CC[C@@H](C6)N7)c6cnc(-c7cc(O)cc8ccccc78)c(F)c6n5)CCCN34)ccc21 (stereo partly drawn) [Example 149, 4-(4-((1R,5S)-3,8-diazabicyclo[3.2.1]octan-3-yl)-8-fluoro-2-((3-(1,1,3,3-tetramethyl-1,3-dihydroisobenzofuran-5-yl)tetrahydro-1H-pyrrolizin-7a(5H)-yl)methoxy)pyrido[4,3d]pyrimidin-7-yl)naphthalen-2-ol] | – | – | – | –
4 | 5.2 nM | 458 ng·h/mL | 156 ng/mL | Oc1cc(-c2ncc3c(N4C[C@H]5CC[C@@H](C4)N5)nc(OCC45CCCN4C(c4ccc6c(c4)C4CCC6O4)CC5)nc3c2F)c2c(F)c(F)ccc2c1 (stereo partly drawn) [Example 153, 4-(4-((1R,5S)-3,8-diazabicyclo[3.2.1]octan-3-yl)-8-fluoro-2-((3-(1,2,3,4-tetrahydro-1,4-epoxynaphthalen-6-yl)tetrahydro-1H-pyrrolizin-7a(5H)-yl)methoxy)pyrido[4,3d]pyrimidin-7-yl)-5,6-difluoronaphthalen-2-ol] | – | – | – | –
5 | – | – | – | CC1(C)OCc2ccc(C3CCC4(COc5nc(N6CC7CCC(C6)N7)c6cnc(-c7cc(O)cc8ccc(F)c(F)c78)c(F)c6n5)CCCN34)cc21 [Example 156, 4-(4-((1R,5S)-3,8-diazabicyclo[3.2.1]octan-3-yl)-2-((3-(3,3-dimethyl-1,3-dihydroisobenzofuran-5-yl)tetrahydro-1H-pyrrolizin-7a(5H)-yl)methoxy)-8-fluoropyridin[4,3-d]pyrimidin-7-yl)-5,6-difluoronaphthalen-2-ol] | 15 nM | 598 ng·h/mL | 138 ng/mL | –
6 | – | – | – | Oc1cc(-c2ncc3c(N4CC5CCC(C4)N5)nc(OCC45CCCN4C(c4ccc6c(c4)COCC6)CC5)nc3c2F)c2c(F)c(F)ccc2c1 (centres unmarked) [Example 187] | 13 nM | 567 ng·h/mL | 109 ng/mL | –
7 | – | – | – | C#Cc1c(F)ccc2cc(O)cc(-c3ncc4c(N5CC6CCC(C5)N6)nc(OCC56CCCN5C(c5ccc(F)cc5)CC6)nc4c3F)c12 (centres unmarked) [Example 188] | 5.2 nM | 862 ng·h/mL | 149 ng/mL | –
8 | – | – | – | C#Cc1c(F)ccc2cc(O)cc(-c3ncc4c(N5CC6CCC(C5)N6)nc(OCC56CCCN5C(c5ccc7c(c5)C5CCC7O5)CC6)nc4c3F)c12 (centres unmarked) [Example 192] | 1.8 nM | 284 ng·h/mL | 96 ng/mL | IC50 (GP2d cells; 168 h): 3.51 nM; IC50 (ASPC-1 cells; Homo sapiens, ASPC1, 168 h): 12.2 nM
9 | – | – | – | Oc1cc(-c2ncc3c(N4CC5CCC(C4)N5)nc(OCC45CCCN4C(c4ccc(Cl)c(C(F)(F)F)c4)CC5)nc3c2F)c2c(F)c(F)ccc2c1 (centres unmarked) [Example 227] | 2.4 nM | 245 ng·h/mL | 52 ng/mL | –
10 | 1.2 nM | 70 ng·h/mL | 26 ng/mL | C#Cc1c(F)ccc2cc(O)cc(-c3ncc4c(N5CC6CCC(C5)N6)nc(OC[C@@]56CCCN5C[C@H](F)C6)nc4c3F)c12 [MRTX1133, reference compound] | – | – | – | IC50 (GP2d cells): 1.38 nM; oral pharmacokinetics (Cmax and AUC) ([2]; SD rats): extremely poor; AUC ([2]; 10 mg/kg): No parameter; Cmax ([2]; 10 mg/kg): 1 to 2 ng/mL; IC50 (ASPC-1 cells): 10.9 nM

Row | SMILES | IC50 [1] | AUC ([2]; 100 mg/kg) | Cmax ([2]; 100 mg/kg) | IC50 ([1]; Homo sapiens, AGS) | AUC [2, 3] | Cmax [2, 4] | also measured
11 | Oc1cc(-c2ncc3c(N4CC5CCC(C4)N5)nc(OCC45CCCN4[C@@H](c4cc(F)c(F)c(F)c4)CC5)nc3c2F)c2c(F)c(F)ccc2c1 (single isomer, unassigned) [Example 223] | 0.74 nM | 404 ng·h/mL | 260 ng/mL | – | – | – | IC50 (GP2d cells; 168 h): 0.67 nM; IC50 (ASPC-1 cells; Homo sapiens, ASPC1, 168 h): 3.09 nM
12 | Nc1cc(Cl)c(C(F)(F)F)c(-c2ncc3c(N4C[C@H]5CC[C@@H](C4)N5)nc(OCC45CCCN4C(c4ccc6c(c4)OC(F)(F)O6)CC5)nc3c2F)c1 (stereo partly drawn) [Example 161, 3-(4-((1R,5S)-3,8-diazabicyclo[3.2.1]octan-3-yl)-2-((3-(2,2-difluorobenzo[d][1,3]dioxy-5-yl)tetrahydro-1H-pyrrolizin-7a(5H)-yl)methoxy)-8-fluoropyridin[4,3-d]pyrimidin-7-yl)-5-chloro-4-(trifluoromethyl) aniline] | – | 1080 ng·h/mL | 193 ng/mL | – | – | – | IC50 (GP2d cells): 10.9 nM; IC50 (ASPC-1 cells): 46.9 nM
